From patent US11912682B2, “Isoindolinone compounds” (Monte Rosa Therapeutics, Inc., priority 2021, dated 2024)

Biological target: GSPT1 (Homo sapiens (Human), UniProt P15170+Q96SW2)
Test: immunofluorescence assay for GSPT1 degradation in CAL-51 cells (Example 10)
Assay type: cell-based
Conditions: CAL-51 cells, 6 h; read-out: IF Class (GSPT1 degradation DC50)
Method: The representative compounds were tested in an immunofluorescence assay for their activity to degrade GSPT1. […] Compounds were stored at 10 mM DMSO stocks. […] Cells were subsequently rinsed with PBS and fixed in 10% Formalin solution (50 μl, Sigma HT5011)) for 20 mins at room temperature. […] Following three further PBS washes, 50 μL blocking buffer (1% BSA, Sigma A4503, in PBS) was added for 45 min for signal-to noise reduction. Primary antibody (human GSPT1, Sigma HPA052488) was diluted in blocking buffer (dil.1/300, 35 μL/well) and incubated with the cells overnight at 4° C. […] After three final PBS washes, samples were conserved in 100 μL PBS in the dark, until measurement. Image acquisition was performed on the Operetta High-Content Imager (Perkin-Elmer). […] For the determination of GSPT1 DC50 values, a custom algorithm implemented in the PerkinElmer image analysis software Harmony-Acapella® was developed. After user-defined setting of adjustment parameters, the analysis was run identically without human intervention for all image fields. DAPI staining of the nuclei was used to determine the location of cells using standard nuclei detection modules. Segmentation artifacts were removed by threshold-based filters for area, roundness and intensity. The outline of the cells was determined analogously from the sum of the normalized, smoothed DAPI and Actin channel, starting from each nucleus. […] GSPT1 degradation (DC50) was calculated after normalization to controls and data import in CDD vault Database, using non-linear regression.

Chain of GSPT1 (P15170 whole entry): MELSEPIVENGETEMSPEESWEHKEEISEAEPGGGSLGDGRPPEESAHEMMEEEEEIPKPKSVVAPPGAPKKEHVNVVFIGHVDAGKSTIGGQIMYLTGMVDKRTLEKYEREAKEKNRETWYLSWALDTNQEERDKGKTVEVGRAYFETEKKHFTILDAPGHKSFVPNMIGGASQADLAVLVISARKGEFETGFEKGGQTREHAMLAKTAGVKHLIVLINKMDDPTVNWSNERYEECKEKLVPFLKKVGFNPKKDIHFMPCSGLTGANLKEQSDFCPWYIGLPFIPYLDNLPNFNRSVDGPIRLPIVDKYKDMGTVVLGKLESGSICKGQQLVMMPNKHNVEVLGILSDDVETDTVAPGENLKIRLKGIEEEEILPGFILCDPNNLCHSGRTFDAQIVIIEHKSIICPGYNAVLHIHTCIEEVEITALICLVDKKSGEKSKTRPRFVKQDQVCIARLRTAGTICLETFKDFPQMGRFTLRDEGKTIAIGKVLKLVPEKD
Chain of GSPT1 (Q96SW2 whole entry): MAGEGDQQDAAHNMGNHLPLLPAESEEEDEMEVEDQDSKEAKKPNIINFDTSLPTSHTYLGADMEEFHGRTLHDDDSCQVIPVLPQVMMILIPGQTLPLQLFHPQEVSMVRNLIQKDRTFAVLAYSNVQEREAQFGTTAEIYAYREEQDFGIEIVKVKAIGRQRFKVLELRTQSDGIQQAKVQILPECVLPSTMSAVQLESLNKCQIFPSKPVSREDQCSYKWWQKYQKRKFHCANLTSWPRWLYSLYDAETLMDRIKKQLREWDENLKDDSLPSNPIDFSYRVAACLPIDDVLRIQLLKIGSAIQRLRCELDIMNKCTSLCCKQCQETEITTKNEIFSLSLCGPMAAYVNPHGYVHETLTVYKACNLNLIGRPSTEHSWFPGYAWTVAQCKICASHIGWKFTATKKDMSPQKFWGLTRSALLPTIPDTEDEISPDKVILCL
Chain of GSPT1 (Q16531 2-1140 partner): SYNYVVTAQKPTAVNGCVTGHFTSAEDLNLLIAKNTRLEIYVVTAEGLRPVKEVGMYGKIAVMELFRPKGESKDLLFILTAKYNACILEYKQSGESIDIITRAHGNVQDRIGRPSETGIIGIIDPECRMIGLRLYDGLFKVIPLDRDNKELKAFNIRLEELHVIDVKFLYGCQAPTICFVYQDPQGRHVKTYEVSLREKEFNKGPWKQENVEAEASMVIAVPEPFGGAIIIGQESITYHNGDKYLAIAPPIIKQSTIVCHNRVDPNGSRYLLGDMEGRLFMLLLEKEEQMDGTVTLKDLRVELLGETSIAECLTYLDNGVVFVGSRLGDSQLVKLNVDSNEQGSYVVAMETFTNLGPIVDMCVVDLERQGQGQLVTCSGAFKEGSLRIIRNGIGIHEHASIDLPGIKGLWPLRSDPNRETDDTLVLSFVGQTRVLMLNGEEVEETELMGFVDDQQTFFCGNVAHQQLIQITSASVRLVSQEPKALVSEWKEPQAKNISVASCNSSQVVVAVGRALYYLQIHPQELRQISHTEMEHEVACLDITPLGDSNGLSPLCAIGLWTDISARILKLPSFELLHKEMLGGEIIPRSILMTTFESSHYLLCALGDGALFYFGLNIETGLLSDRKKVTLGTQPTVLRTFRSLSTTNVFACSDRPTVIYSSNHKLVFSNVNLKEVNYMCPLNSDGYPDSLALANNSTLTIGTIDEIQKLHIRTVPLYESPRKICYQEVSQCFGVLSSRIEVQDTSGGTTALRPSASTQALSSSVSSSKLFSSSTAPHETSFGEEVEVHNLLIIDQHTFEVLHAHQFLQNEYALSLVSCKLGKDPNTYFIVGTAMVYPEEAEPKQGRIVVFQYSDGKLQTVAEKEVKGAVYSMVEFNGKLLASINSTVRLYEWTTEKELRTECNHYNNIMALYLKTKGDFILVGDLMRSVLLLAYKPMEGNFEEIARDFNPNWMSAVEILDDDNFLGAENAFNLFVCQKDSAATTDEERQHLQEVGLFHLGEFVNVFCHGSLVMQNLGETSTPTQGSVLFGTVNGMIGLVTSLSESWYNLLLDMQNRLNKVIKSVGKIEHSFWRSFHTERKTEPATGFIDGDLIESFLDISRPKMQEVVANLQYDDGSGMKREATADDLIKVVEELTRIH

`O=C1CCC(N2Cc3ccc(COC(=O)NC45CC(C4)C5)cc3C2=O)C(=O)N1` (stereo not shown) [Compound 193, (2-(2,6-dioxopiperidin-3-yl)-3-oxoisoindolin-5-yl)methyl bicyclo[1.1.1]pentan-1-ylcarbamate] was tested. Which DC50 did it give?
Its DC50 is greater than 300 nM.

Which DC50 does the source give for `O=C1CCC(N2Cc3ccc(COC(=O)NC4CN(c5ccccc5)C4)cc3C2=O)C(=O)N1` (stereo not shown) [Compound 167] here?
The DC50 was greater than 300 nM.

How did the DC50 turn out when `O=C1CCC(N2Cc3ccc(COC(=O)Nc4cc(C5CC5)ccc4F)cc3C2=O)C(=O)N1` (stereo not shown) [Compound 207, (2-(2,6-dioxopiperidin-3-yl)-3-oxoisoindolin-5-yl)methyl (5-cyclopropyl-2-fluorophenyl) carbamate] was run?
Its DC50 is 30 to 300 nM.

With `Cc1cc(F)c(NC(=O)OCc2ccc3c(c2)C(=O)N(C2CCC(=O)NC2=O)C3)cc1C` (stereo not shown) [Compound 208, (2-(2,6-dioxopiperidin-3-yl)-3-oxoisoindolin-5-yl)methyl (2-fluoro-4,5-dimethylphenyl)carbamate] as the compound, how does the DC50 read?
Its DC50 is greater than 300 nM.

For `Cc1cc(F)c(NC(=O)OCc2ccc3c(c2)C(=O)N(C2CCC(=O)NC2=O)C3)cc1Br` (stereo not shown) [Compound 197, (2-(2,6-dioxopiperidin-3-yl)-3-oxoisoindolin-5-yl)methyl (5-bromo-2-fluoro-4-methylphenyl)carbamate], which DC50 is on record?
Its DC50 is 30 to 300 nM.

Which DC50 does the source give for `COc1cc(NC(=O)OCc2ccc3c(c2)C(=O)N(C2CCC(=O)NC2=O)C3)c(F)cc1C` (stereo not shown) [Compound 229, (2-(2,6-dioxopiperidin-3-yl)-3-oxoisoindolin-5-yl)methyl (2-fluoro-5-methoxy-4-methylphenyl)carbamate] here?
Its DC50 is 30 to 300 nM.

How did the DC50 turn out when `Cc1cc(F)c(NC(=O)OCc2ccc3c(c2)C(=O)N(C2CCC(=O)NC2=O)C3)cc1OC(C)C` (stereo not shown) [Compound 230, (2-(2,6-dioxopiperidin-3-yl)-3-oxoisoindolin-5-yl)methyl (2-fluoro-5-isopropoxy-4-methylphenyl)carbamate] was run?
Its DC50 is less than 30 nM.

Which DC50 does the source give for `Cc1cc(NC(=O)OCc2ccc3c(c2)C(=O)N(C2CCC(=O)NC2=O)C3)ncc1N1CCC[C@H]1C` (stereo partly drawn) [Compound 237, (2-(2,6-dioxopiperidin-3-yl)-3-oxoisoindolin-5-yl)methyl (4-methyl-5-((R)-2-methylpyrrolidin-1-yl)pyridin-2-yl)carbamate] here?
The DC50 was 30 to 300 nM.

`O=C1CCC(N2Cc3ccc(COC(=O)NC45CC(CF)(C4)C5)cc3C2=O)C(=O)N1` (stereo not shown) [Compound 202, (2-(2,6-dioxopiperidin-3-yl)-3-oxoisoindolin-5-yl)methyl (3-(fluoromethyl)bicyclo[1.1.1]pentan-1-yl) carbamate] was tested. Which DC50 did it give?
Its DC50 is greater than 300 nM.

With `CC(C)(C)c1cccc(NC(=O)OCc2ccc3c(c2)C(=O)N(C2CCC(=O)NC2=O)C3)n1` (stereo not shown) [Compound 170, (2-(2,6-dioxopiperidin-3-yl)-3-oxoisoindolin-5-yl)methyl (6-(tert-butyl)pyridin-2-yl)carbamate] as the compound, how does the DC50 read?
The DC50 was 30 to 300 nM.

How did the DC50 turn out when `Cc1cc(F)c(NC(=O)OCc2ccc3c(c2)C(=O)N(C2CCC(=O)NC2=O)C3)cc1F` (stereo not shown) [Compound 213, (2-(2,6-dioxopiperidin-3-yl)-3-oxoisoindolin-5-yl)methyl (2,5-difluoro-4-methylphenyl)carbamate] was run?
Its DC50 is greater than 300 nM.

`O=C1CCC(N2Cc3ccc(COC(=O)Nc4ccc(C(O)C(F)(F)F)cc4)cc3C2=O)C(=O)N1` (stereo not shown) [Compound 209, (2-(2,6-dioxopiperidin-3-yl)-3-oxoisoindolin-5-yl)methyl (4-(2,2,2-trifluoro-1-hydroxyethyl)phenyl) carbamate] was tested. Which DC50 did it give?
The DC50 was greater than 300 nM.

How did the DC50 turn out when `Cc1cc(NC(=O)OCc2ccc3c(c2)C(=O)N(C2CCC(=O)NC2=O)C3)ncc1N1CCCC1` (stereo not shown) [Compound 194, (2-(2,6-dioxopiperidin-3-yl)-3-oxoisoindolin-5-yl)methyl (4-methyl-5-(pyrrolidin-1-yl)pyridin-2-yl) carbamate] was run?
The DC50 was greater than 300 nM.

Which DC50 does the source give for `CCOc1ccc(F)c(NC(=O)OCc2ccc3c(c2)C(=O)N(C2CCC(=O)NC2=O)C3)c1` (stereo not shown) [Compound 223, (2-(2,6-dioxopiperidin-3-yl)-3-oxoisoindolin-5-yl)methyl (5-ethoxy-2-fluorophenyl)carbamate] here?
Its DC50 is greater than 300 nM.

Which DC50 does the source give for `Cc1ccc(NC(=O)OCc2ccc3c(c2)C(=O)N(C2CCC(=O)NC2=O)C3)nc1Cl` (stereo not shown) [Compound 183, (2-(2,6-dioxopiperidin-3-yl)-3-oxoisoindolin-5-yl)methyl (6-chloro-5-methylpyridin-2-yl)carbamate] here?
The DC50 was 30 to 300 nM.

For `Cc1cc(F)c(NC(=O)OCc2ccc3c(c2)C(=O)N(C2CCC(=O)NC2=O)C3)cc1C(F)(F)F` (stereo not shown) [Compound 233], which DC50 is on record?
The DC50 was 30 to 300 nM.

How did the DC50 turn out when `O=C1CCC(N2Cc3ccc(COC(=O)Nc4cc(Cl)ccc4F)cc3C2=O)C(=O)N1` (stereo not shown) [Compound 163, (2-(2,6-dioxopiperidin-3-yl)-3-oxoisoindolin-5-yl)methyl (5-chloro-2-fluorophenyl)carbamate] was run?
The DC50 was greater than 300 nM.

How did the DC50 turn out when `Cc1cc(F)c(NC(=O)OCc2ccc3c(c2)C(=O)N(C2CCC(=O)NC2=O)C3)cc1OC(F)F` (stereo not shown) [Compound 201, (2-(2,6-dioxopiperidin-3-yl)-3-oxoisoindolin-5-yl) methyl (5-(difluoromethoxy)-2-fluoro-4-methylphenyl)carbamate] was run?
The DC50 was 30 to 300 nM.

With `CC1(c2ccc(NC(=O)OCc3ccc4c(c3)C(=O)N(C3CCC(=O)NC3=O)C4)cc2Cl)COC1` (stereo not shown) [Compound 236, (2-(2,6-dioxopiperidin-3-yl)-3-oxoisoindolin-5-yl)methyl (3-chloro-4-(3-methyloxetan-3-yl)phenyl)carbamate] as the compound, how does the DC50 read?
The DC50 was less than 30 nM.

With `O=C1CCC(N2Cc3ccc(COC(=O)Nc4cccc5c4OCC5)cc3C2=O)C(=O)N1` (stereo not shown) [Compound 173] as the compound, how does the DC50 read?
Its DC50 is greater than 300 nM.

Which DC50 does the source give for `CCCOc1cc(NC(=O)OCc2ccc3c(c2)C(=O)N(C2CCC(=O)NC2=O)C3)c(F)cc1C` (stereo not shown) [Compound 231, (2-(2,6-dioxopiperidin-3-yl)-3-oxoisoindolin-5-yl)methyl (2-fluoro-4-methyl-5-propoxyphenyl)carbamate] here?
The DC50 was less than 30 nM.

`O=C1CCC(N2Cc3ccc(COC(=O)NC45CC(N6CCCCC6)(C4)C5)cc3C2=O)C(=O)N1` (stereo not shown) [Compound 198] was tested. Which DC50 did it give?
The DC50 was greater than 300 nM.

`CC(C)(C)c1ccc(F)c(NC(=O)OCc2ccc3c(c2)C(=O)N(C2CCC(=O)NC2=O)C3)c1` (stereo not shown) [Compound 235] was tested. Which DC50 did it give?
Its DC50 is 30 to 300 nM.

How did the DC50 turn out when `Cc1cc(F)c(NC(=O)OCc2ccc3c(c2)C(=O)N(C2CCC(=O)NC2=O)C3)cc1OC(F)(F)F` (stereo not shown) [Compound 204, (2-(2,6-dioxopiperidin-3-yl)-3-oxoisoindolin-5-yl) methyl (2-fluoro-4-methyl-5-(trifluoromethoxy)phenyl)carbamate] was run?
The DC50 was 30 to 300 nM.

Which DC50 does the source give for `CC(C)(C)Oc1ccc(F)c(NC(=O)OCc2ccc3c(c2)C(=O)N(C2CCC(=O)NC2=O)C3)c1` (stereo not shown) [Compound 222, (2-(2,6-dioxopiperidin-3-yl)-3-oxoisoindolin-5-yl)methyl (5-(tert-butoxy)-2-fluorophenyl)carbamate] here?
The DC50 was 30 to 300 nM.

With `CC(C)(O)c1ccc(NC(=O)OCc2ccc3c(c2)C(=O)N(C2CCC(=O)NC2=O)C3)cn1` (stereo not shown) [Compound 199, (2-(2,6-dioxopiperidin-3-yl)-3-oxoisoindolin-5-yl)methyl (6-(2-hydroxypropan-2-yl)pyridin-3-yl)carbamate] as the compound, how does the DC50 read?
The DC50 was greater than 300 nM.

`O=C1CCC(N2Cc3ccc(COC(=O)Nc4cc(Cl)cc5c4OCC5)cc3C2=O)C(=O)N1` (stereo not shown) [Compound 189] was tested. Which DC50 did it give?
The DC50 was 30 to 300 nM.

With `Cc1cc(NC(=O)OCc2ccc3c(c2)C(=O)N(C2CCC(=O)NC2=O)C3)cc(C#N)c1C` (stereo not shown) [Compound 186] as the compound, how does the DC50 read?
Its DC50 is less than 30 nM.

For `O=C1CCC(N2Cc3ccc(COC(=O)NC45C6C7C4C4C5C6C74c4ccccc4)cc3C2=O)C(=O)N1` (stereo not shown) [Compound 225, (2-(2,6-dioxopiperidin-3-yl)-3-oxoisoindolin-5-yl)methyl (4-phenylcuban-1-yl)carbamate], which DC50 is on record?
The DC50 was greater than 300 nM.

Which DC50 does the source give for `O=C1CCC(N2Cc3ccc(COC(=O)NC45CC(c6ccccc6F)(C4)C5)cc3C2=O)C(=O)N1` (stereo not shown) [Compound 174, (2-(2,6-dioxopiperidin-3-yl)-3-oxoisoindolin-5-yl)methyl (3-(2-fluorophenyl)bicyclo[1.1.1]pentan-1-yl) carbamate] here?
Its DC50 is less than 30 nM.

`CC(C)c1cccc(NC(=O)OCc2ccc3c(c2)C(=O)N(C2CCC(=O)NC2=O)C3)c1` (stereo not shown) [Compound 217, (2-(2,6-dioxopiperidin-3-yl)-3-oxoisoindolin-5-yl)methyl (3-isopropylphenyl)carbamate] was tested. Which DC50 did it give?
Its DC50 is less than 30 nM.

Which DC50 does the source give for `Cc1cc2c(c(NC(=O)OCc3ccc4c(c3)C(=O)N(C3CCC(=O)NC3=O)C4)c1)OCC2` (stereo not shown) [Compound 182] here?
The DC50 was greater than 300 nM.

`O=C1CCC(N2Cc3ccc(COC(=O)NC45CC(C(F)F)(C4)C5)cc3C2=O)C(=O)N1` (stereo not shown) [Compound 219, (2-(2,6-dioxopiperidin-3-yl)-3-oxoisoindolin-5-yl)methyl (3-(difluoromethyl)bicyclo[1.1.1]pentan-1-yl) carbamate] was tested. Which DC50 did it give?
Its DC50 is greater than 300 nM.

`O=C1CCC(N2Cc3ccc(COC(=O)Nc4cccc(Cl)c4)cc3C2=O)C(=O)N1` (stereo not shown) [Compound 239, (2-(2,6-dioxopiperidin-3-yl)-3-oxoisoindolin-5-yl)methyl (3-chlorophenyl)carbamate] was tested. Which DC50 did it give?
Its DC50 is less than 30 nM.
